Test systems include HOP-62 NSCLC; OVCAR-4 ovarian; COLO 205 colon; U251 CNS; HCT-116 colon; TK-10 renal; A498 renal; NCI-H460 lung; UACC-62 melanoma; HS 578T breast; NCI-H522 lung; SK-MEL-2 melanoma; SF-268 CNS.
Assay in all cases: inhibition of tumour cell growth, NCI panel, 48 h

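Assay format: 96-well plates, 48-hour exposure. TGI: total growth inhibition.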

Experimental findings from PubChem BioAssay (NCI) are described below.

Consider `C[N+]1(C)CN(c2ccccc2)C2(CCN(CCCC(=O)c3cccs3)CC2)C1=O`, for which the TGI in the experiment with HOP-62 NSCLC, in the experiment on OVCAR-4 ovarian, in the experiment with COLO 205 colon, in the experiment with U251 CNS, with HCT-116 colon and in the experiment on TK-10 renal was greater than 100 µM in each case. Further, the TGI in the experiment with A498 renal, in the experiment with NCI-H460 lung, with UACC-62 melanoma, in the experiment on HS 578T breast, in the experiment with NCI-H522 lung and with SK-MEL-2 melanoma was greater than 100 µM each time. In the experiment on SF-268 CNS, the TGI was greater than 100 µM.
In the case of `O=C(/C=C/c1ccc(O)c(O)c1)OCCOC(=O)/C=C/c1ccc(O)c(O)c1`, the TGI was 47.4 µM in the experiment with HOP-62 NSCLC; greater than 100 µM in the experiment with OVCAR-4 ovarian; 42.3 µM in the experiment on COLO 205 colon; 59.2 µM in the experiment on U251 CNS; 46.7 µM in the experiment on HCT-116 colon; greater than 100 µM with TK-10 renal. Moreover, the TGI was greater than 100 µM in the experiment on A498 renal; greater than 100 µM in the experiment on NCI-H460 lung; 35.1 µM with UACC-62 melanoma; greater than 100 µM in the experiment with HS 578T breast; 46.9 µM with NCI-H522 lung; 45.8 µM with SK-MEL-2 melanoma. For the same compound, the TGI with SF-268 CNS is greater than 100 µM.
Take `CC1(C)CCc2c(c(N=Nc3ccccc3)c3ccccc3c2O)O1`: the TGI is greater than 100 µM in the experiment on HOP-62 NSCLC; greater than 100 µM in the experiment on OVCAR-4 ovarian; greater than 100 µM with COLO 205 colon; 61.3 µM in the experiment with U251 CNS; 51.2 µM with HCT-116 colon; 46.1 µM in the experiment with TK-10 renal. Also, the TGI was 44.1 µM with A498 renal; 53.3 µM with NCI-H460 lung; greater than 100 µM in the experiment with UACC-62 melanoma; greater than 100 µM with HS 578T breast; greater than 100 µM in the experiment on NCI-H522 lung; 34.5 µM with SK-MEL-2 melanoma. This compound came in with a TGI in the experiment on SF-268 CNS greater than 100 µM.
`Cn1c(=O)n(CC(Br)CBr)c(=O)n(CC(Br)CBr)c1=O` (stereo not given): the TGI with HOP-62 NSCLC is greater than 100 µM; in the experiment with OVCAR-4 ovarian, greater than 100 µM; in the experiment on COLO 205 colon, 43.4 µM; in the experiment with U251 CNS, greater than 100 µM; with HCT-116 colon, 79.3 µM; in the experiment on TK-10 renal, greater than 100 µM. In addition, the TGI in the experiment on A498 renal is greater than 100 µM; in the experiment on NCI-H460 lung, greater than 100 µM; with UACC-62 melanoma it was 72.8 µM; with HS 578T breast it was greater than 100 µM; with NCI-H522 lung, greater than 100 µM; in the experiment with SK-MEL-2 melanoma, greater than 100 µM. In the experiment with SF-268 CNS, this compound gave a TGI greater than 100 µM.
With `NC(=O)N(O)c1cccc(Br)c1`, the TGI in the experiment with HOP-62 NSCLC, in the experiment with OVCAR-4 ovarian, with COLO 205 colon, in the experiment on U251 CNS, in the experiment on HCT-116 colon and in the experiment with TK-10 renal was greater than 100 µM in each case. Moreover, the TGI in the experiment on A498 renal, in the experiment on NCI-H460 lung, with UACC-62 melanoma, in the experiment on HS 578T breast, in the experiment with NCI-H522 lung and in the experiment on SK-MEL-2 melanoma was greater than 100 µM throughout. The compound further showed a TGI in the experiment with SF-268 CNS greater than 100 µM.
For `O=C1OC(CN2CCN(c3ccccc3)CC2)CN1C(=S)Nc1ccccc1` (stereo not given), the TGI in the experiment on HOP-62 NSCLC, with OVCAR-4 ovarian, in the experiment on COLO 205 colon, in the experiment on U251 CNS, with HCT-116 colon and with TK-10 renal was greater than 100 µM throughout. For the same compound, the TGI with A498 renal, in the experiment on NCI-H460 lung, with UACC-62 melanoma, in the experiment with HS 578T breast, in the experiment on NCI-H522 lung and with SK-MEL-2 melanoma was greater than 100 µM throughout. The TGI in the experiment with SF-268 CNS is greater than 100 µM.
With `Cc1nc2c(-c3ccccc3)[nH]c(C)c2c(=O)o1`, the TGI in the experiment with HOP-62 NSCLC, in the experiment on OVCAR-4 ovarian, with COLO 205 colon, in the experiment with U251 CNS, in the experiment on HCT-116 colon and in the experiment with TK-10 renal was greater than 100 µM throughout. The TGI with A498 renal, with NCI-H460 lung, in the experiment with UACC-62 melanoma, in the experiment on HS 578T breast, in the experiment on NCI-H522 lung and in the experiment on SK-MEL-2 melanoma was greater than 100 µM in each case. The compound further showed a TGI with SF-268 CNS greater than 100 µM.
Consider `Cc1n[nH]c(=O)n1N=C(c1ccccc1)c1ccccc1`, for which the TGI in the experiment with HOP-62 NSCLC, with OVCAR-4 ovarian, with COLO 205 colon, with U251 CNS, in the experiment with HCT-116 colon and with TK-10 renal was greater than 100 µM in each case. In addition, the TGI in the experiment with A498 renal, in the experiment on NCI-H460 lung, in the experiment with UACC-62 melanoma, in the experiment on HS 578T breast, with NCI-H522 lung and with SK-MEL-2 melanoma was greater than 100 µM throughout. In addition, in the experiment with SF-268 CNS, the TGI was greater than 100 µM.
As for `CC(C)(C)C=C=C(C(C)(C)C)P(=O)(O)O`, the TGI in the experiment with HOP-62 NSCLC, in the experiment on OVCAR-4 ovarian, in the experiment on COLO 205 colon, in the experiment on U251 CNS, with HCT-116 colon and in the experiment on TK-10 renal was greater than 100 µM throughout. Further, the TGI in the experiment on A498 renal, in the experiment with NCI-H460 lung, in the experiment on UACC-62 melanoma, with HS 578T breast, in the experiment on NCI-H522 lung and in the experiment with SK-MEL-2 melanoma was greater than 100 µM in each case. The compound further gave a TGI in the experiment on SF-268 CNS greater than 100 µM.
As to `O=C(/C=C/c1ccc(Cl)c(Cl)c1)Oc1ccc(/C=C2\CCCCC2=O)cc1`, the TGI in the experiment with HOP-62 NSCLC, in the experiment on OVCAR-4 ovarian, in the experiment with COLO 205 colon, in the experiment on U251 CNS, in the experiment on HCT-116 colon and in the experiment with TK-10 renal was greater than 100 µM each time. The TGI with A498 renal, with NCI-H460 lung, in the experiment on UACC-62 melanoma, in the experiment on HS 578T breast, in the experiment on NCI-H522 lung and in the experiment with SK-MEL-2 melanoma was greater than 100 µM in each case. For the same compound, the TGI with SF-268 CNS was greater than 100 µM.
